Patent US8987195B2 (priority 2012, dated 2015)
Like-named read-outs stand apart in the source and are kept apart here.

Key:
HCV genotype 1b replicon = assay: HCV replicon assay, genotype 1b replicon EC50; type: cell-based, Hepatitis C virus; details: Hepatitis C virus, HCV replicon, genotype 1b, read-out: EC50 [gt-1b]
Procedure, shortened: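 Compound dilution series incubated 24-48 h, G418 absent, with HCV genotype 1b replicon cell lines kept under G418 selection beforehand. Luciferase signal or replicon RNA, by ^32P hybridization/protection or TaqMan normalized to cyclophilin A, was measured after washing and lysis. Four-parameter fitting against DMSO control gave EC50.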

[1] = biological target: HCV NS3/4A protease genotype 1b (Hepatitis C virus genotype 1b, UniProt P26663); assay: HCV NS3/4A protease time-resolved fluorescence (TRF) assay, Ki against genotype 1b; type: biochemical; details: IC50 [gt-1b], NS3/4A protease TRF assay, genotype 1b enzyme 0.2 nM
Procedure, shortened: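 First, protease (genotype 1b 0.2 nM, A156T 0.4 nM, genotype 3a 0.025 nM) is preincubated 30 min with inhibitor. Next, 25 nM TRF substrate starts the reaction, run 2.5 h at room temperature. Finally, europium fluorescence is read and Ki calculated from IC50.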

| Structure (SMILES) | EC50 (HCV genotype 1b replicon) [nM] | IC50 [1] [nM] | also measured |
| --- | --- | --- | --- |
| COCC1(S(=O)(=O)NC(=O)[C@@]23C[C@H]2/C=C\CCCCC[C@H](NC(=O)OCC(C)(C)C)C(=O)N2C[C@@]4(CCc5c(c(C(F)(F)F)nc6ccc(OC)cc56)O4)C[C@H]2C(=O)N3)CC1 [Example 496, 2,2-dimethylpropyl [(2R,65,12Z,13aS,14aR,16aS)-9′-methoxy-14a-({[1-(methoxymethyl)cyclopropyl]sulfonyl}carbamoyl)-5,16-dioxo-5′-(trifluoromethyl)-1,1′,2′,5,6,7,8,9,10,11,13a,14,14a,15,16,16a-hexadecahydrospiro[cyclopropa[e]pyrrolo[1,2-a][1,4]diazacyclopentadecine-2,3′-pyrano[2,3-c]quinolin]-6-yl]carbamate] | 6.93 | 0.027 | – |
| COCC1(S(=O)(=O)NC(=O)[C@@]23C[C@H]2/C=C\CCCCC[C@H](NC(=O)OCC(F)F)C(=O)N2C[C@@]4(CCc5c(c(C(F)(F)F)nc6ccc(OC)cc56)O4)C[C@H]2C(=O)N3)CC1 [Example 497, 2,2-difluoroethyl [(2R,6S,12Z,13aS,14aR,16aS)-9′-methoxy-14a-({[1-(methoxymethyl)cyclopropyl]sulfonyl}carbamoyl)-5,16-dioxo-5′-(trifluoromethyl)-1,1′,2′,5,6,7,8,9,10,11,13a,14,14a,15,16,16a-hexadecahydrospiro[cyclopropa[e]pyrrolo[1,2-a][1,4]diazacyclopentadecine-2,3′-pyrano[2,3-c]quinolin]-6-yl]carbamate] | 1.94 | 0.014 | – |
| COc1ccc2nc(C(F)(F)F)c3c(c2c1)CC[C@]1(C[C@H]2C(=O)N[C@]4(C(=O)NS(=O)(=O)C5(C)CC5)C[C@H]4/C=C\CCCCC[C@H](NC(=O)OCC4(C)CC4)C(=O)N2C1)O3 [Example 498, (1-methylcyclopropyl)methyl [(2R,6S,12Z,13aS,14aR,16aS)-9′-methoxy-14a-{[(1-methylcyclopropyl)sulfonyl]carbamoyl}-5,16-dioxo-5′-(trifluoromethyl)-1,1′,2′,5,6,7,8,9,10,11,13a,14,14a,15,16,16a-hexadecahydrospiro[cyclopropa[e]pyrrolo[1,2-a][1,4]diazacyclopentadecine-2,3′-pyrano[2,3-c]quinolin]-6-yl]carbamate] | – | – | EC50 (HCV genotype 1b replicon; K+ salt): 0.607 nM; IC50 ([1]; K+ salt): 0.009 nM |
| COc1ccc2nc(C(F)(F)F)c3c(c2c1)CC[C@]1(C[C@H]2C(=O)N[C@]4(C(=O)NS(=O)(=O)C5(C)CC5)C[C@H]4/C=C\CCCCC[C@H](NC(=O)OCC(F)F)C(=O)N2C1)O3 [Example 499, 2,2-difluoroethyl [(2R,6S,12Z,13aS,14aR,16aS)-9′-methoxy-14a-{[(1-methylcyclopropyl)sulfonyl]carbamoyl}-5,16-dioxo-5′-(trifluoromethyl)-1,1′,2′,5,6,7,8,9,10,11,13a,14,14a,15,16,16a-hexadecahydrospiro[cyclopropa[e]pyrrolo[1,2-a][1,4]diazacyclopentadecine-2,3′-pyrano[2,3-c]quinolin]-6-yl]carbamate] | – | – | EC50 (HCV genotype 1b replicon; K+ salt): 0.433 nM; IC50 ([1]; K+ salt): 0.004 nM |
| COCC1(S(=O)(=O)NC(=O)[C@@]23C[C@H]2/C=C\CCCCC[C@H](NC(=O)C2CCC(=O)N(C)C2)C(=O)N2C[C@@]4(CCc5c(c(C(F)(F)F)nc6ccc(OC)cc56)O4)C[C@H]2C(=O)N3)CC1 (stereo partly drawn) [Example 500, (2R,6S,12Z,13aS,14aR,16aS)-9′-methoxy-N-{[1-(methoxymethyl)cyclopropyl]sulfonyl}-6-{[(1-methyl-6-oxopiperidin-3-yl)carbonyl]amino}-5,16-dioxo-5′-(trifluoromethyl)-1,1′,2′,6,7,8,9,10,11,13a,14,15,16,16a-tetradecahydrospiro[cyclopropa[e]pyrrolo[1,2-a][1,4]diazacyclopentadecine-2,3′-pyrano[2,3-c]quinoline]-14a(5H)-carboxamide] | 435 | 0.014 | – |
| COc1ccc2nc(C(F)(F)F)c3c(c2c1)CC[C@]1(C[C@H]2C(=O)N[C@]4(C(=O)NS(=O)(=O)C5(C)CC5)C[C@H]4/C=C\CCCCC[C@H](NC(=O)O[C@@H]4C[C@@H]5C[C@@H]5C4)C(=O)N2C1)O3 [Example 513, (1R,3r,5S)-bicyclo[3.1.0]hex-3-yl [(2R,6S,12Z,13aS,14aR,16aS)-9′-methoxy-14a-{[(1-methylcyclopropyl)sulfonyl]carbamoyl}-5,16-dioxo-5′-(trifluoromethyl)-1,1′,2′,5,6,7,8,9,10,11,13a,14,14a,15,16,16a-hexadecahydrospiro[cyclopropa[e]pyrrolo[1,2-a][1,4]diazacyclopentadecine-2,3′-pyrano[2,3-c]quinolin]-6-yl]carbamate] | 1.42 | 0.01 | – |
| CCc1nc2ccc(OCCN3CCOCC3)cc2c2c1O[C@]1(CC2)C[C@H]2C(=O)N[C@]3(C(=O)NS(=O)(=O)C4(C)CC4)C[C@H]3/C=C\CCCCC[C@H](NC(=O)O[C@@H]3C[C@@H]4C[C@@H]4C3)C(=O)N2C1 [Example 516, (1R,3r,5S)-bicyclo[3.1.0]hex-3-yl {(2R,6S,12Z,13aS,14aR,16aS)-5′-ethyl-14a-{[(1-methylcyclopropyl)sulfonyl]carbamoyl}-9′-[2-(morpholin-4-yl)ethoxy]-5,16-dioxo-1,1′,2′,5,6,7,8,9,10,11,13a,14,14a,15,16,16a-hexadecahydrospiro[cyclopropa[e]pyrrolo[1,2-a][1,4]diazacyclopentadecine-2,3′-pyrano[2,3-c]quinolin]-6-yl}carbamate] | – | – | EC50 (HCV genotype 1b replicon; HCl salt): 1.09 nM; IC50 ([1]; HCl salt): 0.01 nM |
| COc1ccc2nc(C(F)(F)F)c3c(c2c1)OC[C@]1(C[C@H]2C(=O)N[C@]4(C(=O)NS(=O)(=O)C5(C)CC5)C[C@@H]4/C=C/CCCCC[C@H](NC(=O)OC(C)(C)C)C(=O)N2C1)O3 [Example 517, tert-butyl [(2R,6S,12E,13aR,14aR,16aS)-9′-methoxy-14a-{[(1-methylcyclopropyl)sulfonyl]carbamoyl}-5,16-dioxo-5′-(trifluoromethyl)-1,5,6,7,8,9,10,11,13a,14,14a,15,16,16a-tetradecahydrospiro[cyclopropa[e]pyrrolo[1,2-a][1,4]diazacyclopentadecine-2,3′-[1,4]dioxino[2,3-c]quinolin]-6-yl]carbamate] | 8.87 | 11.2 | – |
| CC(C)(C)OC(=O)N[C@H]1CCCCC/C=C\[C@@H]2C[C@@]2(C(=O)NS(=O)(=O)C2(C)CC2)NC(=O)[C@@H]2C[C@]3(CCc4c(c(C(F)(F)F)nc5ccc(OCCN6CC(F)(F)C6)cc45)O3)CN2C1=O [Example 518, tert-butyl [(2R,6S,12Z,13aS,14aR,16aS)-9′-[2-(3,3-difluoroazetidin-1-yl)ethoxy]-14a-{[(1-methylcyclopropyl)sulfonyl]carbamoyl}-5,16-dioxo-5′-(trifluoromethyl)-1,1′,2′,5,6,7,8,9,10,11,13a,14,14a,15,16,16a-hexadecahydrospiro[cyclopropa[e]pyrrolo[1,2-a][1,4]diazacyclopentadecine-2,3′-pyrano[2,3-c]quinolin]-6-yl]carbamate] | 0.726 | 0.012 | – |
| CCc1nc2ccc(OCCN3CCOCC3)cc2c2c1O[C@]1(CC2)C[C@H]2C(=O)N[C@]3(C(=O)NS(=O)(=O)C4(C)CC4)C[C@H]3/C=C\CCCCC[C@H](NC(=O)O[C@@H](C)C(C)C)C(=O)N2C1 [Example 519, (2S)-3-methylbutan-2-yl {(2R,6S,12Z,13aS,14aR,16aS)-5′-ethyl-14a-{[(1-methylcyclopropyl)sulfonyl]carbamoyl}-9′-[2-(morpholin-4-yl)ethoxy]-5,16-dioxo-1,1′,2′,5,6,7,8,9,10,11,13a,14,14a,15,16,16a-hexadecahydrospiro[cyclopropa[e]pyrrolo[1,2-a][1,4]diazacyclopentadecine-2,3′-pyrano[2,3-c]quinolin]-6-yl}carbamate] | – | – | EC50 (HCV genotype 1b replicon; HCl salt): 0.541 nM; IC50 ([1]; HCl salt): 0.009 nM |
| CC[C@H](C)OC(=O)N[C@H]1CCCCC/C=C\[C@@H]2C[C@@]2(C(=O)NS(=O)(=O)C2(C)CC2)NC(=O)[C@@H]2C[C@]3(CCc4c(c(C(F)F)nc5ccc(OC)nc45)O3)CN2C1=O [Example 525, (2S)-butan-2-yl [(2R,6S,12Z,13aS,14aR,16aS)-6′-(difluoromethyl)-2′-methoxy-14a-{[(1-methylcyclopropyl)sulfonyl]carbamoyl}-5,16-dioxo-1,5,6,7,8,9,9′,10,10′,11,13a,14,14a,15,16,16a-hexadecahydrospiro[cyclopropa[e]pyrrolo[1,2-a][1,4]diazacyclopentadecine-2,8′-pyrano[2,3-c][1,5]naphthyridin]-6-yl]carbamate] | 1.16 | 0.004 | – |
| COc1ccc2nc(C(F)F)c3c(c2n1)CC[C@]1(C[C@H]2C(=O)N[C@]4(C(=O)NS(=O)(=O)C5(C)CC5)C[C@H]4/C=C\CCCCC[C@H](NC(=O)OCC(C)(C)C)C(=O)N2C1)O3 [Example 526, 2,2-dimethylpropyl [(2R,6S,12Z,13aS,14aR,16aS)-6′-(difluoromethyl)-2′-methoxy-14a-{[(1-methylcyclopropyl)sulfonyl]carbamoyl}-5,16-dioxo-1,5,6,7,8,9,9′,10,10′,11,13a,14,14a,15,16,16a-hexadecahydrospiro[cyclopropa[e]pyrrolo[1,2-a][1,4]diazacyclopentadecine-2,8′-pyrano[2,3-c][1,5]naphthyridin]-6-yl]carbamate] | 2.59 | 0.005 | – |
